Among the data in ChEMBL document CHEMBL1122784, “Antitumor imidazotetrazines. 1. Synthesis and chemistry of 8-carbamoyl-3-(2-chloroethyl)imidazo[5,1-d]-1,2,3,5-tetrazin-4(3 H)-one , a novel broad-spectrum antitumor agent” (J Med Chem, 1984) are T/C and Survivors values, retold here.

Test [1] relates to Mus musculus. The experiment in a line: Compound was evaluated for %T/C in P388 leukemia implanted BDF1 mice on day 0 after ip administration of 6.25 mg/kg/day on day 1-5. In kind it is functional. Particulars: route intraperitoneal.
The subject of test [2] is Mus musculus. The experiment in a line: Compound was evaluated for number of survivors in L1210 leukemia implanted BDF1 mice on day 0 after ip administration of 20 mg/kg/day on day 60 out of 5 mice. In kind it is functional. Particulars: route intraperitoneal.

`NC(=O)c1ncn2c(=O)n(CCCl)nnc12` [MITOZOLOMIDE] gave a T/C with Mus musculus [1] of 180%. The molecule also yielded a Survivors with Mus musculus [2] of 5.
